Experimental data: US12104178B2, “DHFR tunable protein regulation” (Obsidian Therapeutics, Inc., priority 2017, dated 2024)
Where “and” joins values, the source holds several entries; their conditions need not be identical. Equal values may be shown once. Entries after “also recorded” stand apart in the source; their conditions may differ.

What was measured:
HCT-116 cells [1] = test: Time course of IL15-IL15Ra surface expression with TMP; assay type: cell-based, human; conditions: 10 μM TMP
Description: The time course of ligand dependent stabilization of IL15-IL15Ra fusion constructs was measured in HCT-116 cells.

HCT116 tumors = test: HCT116 OT-IL15-009 tumors in mice, IL15-IL15Ra western blot and TMP levels; assay type: in vivo, BALB/c nude mice; conditions: TMP 100 then 300 mg/kg orally twice a day, 17 days
HCT116 cells [2] = test: IL15-IL15Ra in vivo tumor study (xenograft); conditions: 5 million HCT116 cells s.c., nude mice
Description: The functional capability of IL15-IL15Ra constructs was tested in vivo in xenograft assays. The experiment was designed to test the hypothesis that pulsatile expression of IL15-IL15Ra fusion proteins from cancer cell lines such as HCT116, in mice may stimulate the mouse's NK cells to attack the tumor leading to tumor growth inhibition. […] Tumors were allowed to develop over a period of 22 days.
Mice injected with OT-IL15-009 expressing cells were left untreated, or treated with vehicle control or TMP.

CD4 positive T cells = test: Kinetics of IL15Ra surface expression in T cells with TMP (Table 92); assay type: cell-based, human; conditions: for Stabilization ratio: TMP vs DMSO;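 for all read-outs here: CD4 positive T cells, CD3/CD28 bead-activated and lentivirally transduced with DD-IL15-IL15Ra, read for surface IL15Ra positivity, stabilization ratio is fold change of ligand over DMSO, untransduced cells as negative control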
HCT116 cells [3] = test: IL15 shedding into media, ELISA and MSD; assay type: cell-based, human; conditions: TMP doses
Description: To test if IL15 is shed into the media, supernatant from HCT116 cells expressing IL15-IL15Ra fusion constructs was subject to immunoassays such as ELISA and MSD (Rockville, Maryland). In FIG. 54B, OD indicates optical density. IL15 was measured in the media of cells expressing IL15-IL15Ra fusion constructs.

HEK-293T cells = test: IL15 western blot of DD IL15-IL15Ra, transient transfection; assay type: cell-based, human; conditions: 10 μM Trimethoprim or 1 μM Shield-1, 24 h
Description: To test ligand dependent IL15-IL15Ra production, 1 million HEK-293T cells were plated in a 6-well plate in growth media containing DMEM and 10 FBS and incubated overnight at 37° C., 5% CO2. […] Cells were harvested and IL15 levels are analyzed via western blotting using human IL15 antibody (Abcam, Cambridge, UK).

HEK293T cells = test: Surface IL15 and IL15Ra FACS, transient transfection; assay type: cell-based, human; conditions: Shield-1 or Trimethoprim
Description: 48 hours after transfection, cells were analyzed using FACS.

primary T cells = test: Regulated expression of IL15-IL15Ra in T cells (FACS); assay type: cell-based, human
Description: The transduction was carried out at two different lentivirus concentrations, 5 μl and 20 μl for the DD regulated construct using Lentiboost™ (Sirion Biotech, Germany). […] Samples were analyzed with an anti IL15Ra antibody using FACS. Additional controls samples such as cells treated with Lentiboost only, untransduced cells treated with DMSO or TMP, and Isotype controls were included in the FACS analysis. […] In both figures, DMSO-A and TMP-A represent cells treated with 5 μl of lentivirus and DMSO-B and TMP-B represent cells treated with 20 μl of lentivirus. […] Additionally, very low levels of IL15Ra were detected in the DMSO treated samples under the same conditions as well as in the untransduced T cells.
IL15Ra expression was measured using FACS.

HCT116 cells [4] = test: IL15Ra immunoblot, TMP dose response; assay type: cell-based, human; conditions: TMP 10, 33, 100 μM, 24 h
Source text: Cell lysates were obtained and immunoblotted with anti IL15Ra antibody.
Cell lysates were immunoblotted with anti IL15Ra antibody.

HCT-116 cells [5] = test: TMP dose response of IL15-IL15Ra surface expression (FACS); assay type: cell-based, human; conditions: 24 h
Source text: Surface expression of IL15-IL15Ra fusion constructs was quantified by FACS using IL15Ra-PE antibody.
Surface expression of IL15-IL15Ra fusion construct was quantified by FACS using IL15Ra-PE antibody.

Substance: OT-IL15-009: IL15-IL15Ra fusion with ecDHFR (R12Y, Y100I) DD
- MFI, surface IL15-IL15Ra (HCT-116 cells [1]; 0 h): 4004
- MFI, surface IL15-IL15Ra (HCT-116 cells [1]; 12 h): 7054
- MFI, surface IL15-IL15Ra (HCT-116 cells [1]; 16 h): 9390
- MFI, surface IL15-IL15Ra (HCT-116 cells [1]; 24 h): 14056
- MFI, surface IL15-IL15Ra (HCT-116 cells [1]; 48 h): 28644
- MFI, surface IL15-IL15Ra (HCT-116 cells [1]; 72 h): 35303
- IL15-IL15Ra in tumors by western blot (FIG. 49) (HCT116 tumors): elevated levels of IL15-IL15Ra expression, compared to tumors treated with the vehicle
- Tumor growth (FIG. 55) (HCT116 cells [2]): mice treated with TMP had smaller tumors than mice of the other two groups
- Percentage of IL15Ra positive cells (CD4 positive T cells; 100 μM TMP): 16.6% and 16%
- Proportion of CD4 T cells with surface IL15Ra over time (FIG. 48) (CD4 positive T cells; 100 μM TMP, 1-24 h): from 4 hrs after TMP treatment, the cells transduced with the OT-IL15-009 construct and treated with TMP exhibited an increased proportion of cells with surface expression of IL15Ra
- percentage of IL15Ra positive CD4 positive T cells, TMP (CD4 positive T cells; 100 μM TMP, 1 hours): 1.86
- percentage of IL15Ra positive CD4 positive T cells, TMP (CD4 positive T cells; 100 μM TMP, 2 hours): 2.27
- percentage of IL15Ra positive CD4 positive T cells, TMP (CD4 positive T cells; 100 μM TMP, 4 hours): 4.01
- percentage of IL15Ra positive CD4 positive T cells, TMP (CD4 positive T cells; 100 μM TMP, 6 hours): 5.85
- percentage of IL15Ra positive CD4 positive T cells, TMP (CD4 positive T cells; 100 μM TMP, 8 hours): 7.09
- percentage of IL15Ra positive CD4 positive T cells, TMP (CD4 positive T cells; 100 μM TMP, 15 hours): 12.53
- percentage of IL15Ra positive CD4 positive T cells, TMP (CD4 positive T cells; 100 μM TMP, 22 hours): 14.57
- percentage of IL15Ra positive CD4 positive T cells, TMP (CD4 positive T cells; 100 μM TMP, 24 hours): 13.75
- percentage of IL15Ra positive CD4 positive T cells, DMSO (CD4 positive T cells; 1 hours): 2.03
- percentage of IL15Ra positive CD4 positive T cells, DMSO (CD4 positive T cells; 2 hours): 2.12
- percentage of IL15Ra positive CD4 positive T cells, DMSO (CD4 positive T cells; 4 hours): 1.99
- percentage of IL15Ra positive CD4 positive T cells, DMSO (CD4 positive T cells; 6 hours): 1.87
- percentage of IL15Ra positive CD4 positive T cells, DMSO (CD4 positive T cells; 8 hours): 2.14
- percentage of IL15Ra positive CD4 positive T cells, DMSO (CD4 positive T cells; 15 hours): 2.46
- percentage of IL15Ra positive CD4 positive T cells, DMSO (CD4 positive T cells; 22 hours): 2.78
- percentage of IL15Ra positive CD4 positive T cells, DMSO (CD4 positive T cells; 24 hours): 2.07
- Stabilization ratio (CD4 positive T cells; 1 hours): 0.92
- Stabilization ratio (CD4 positive T cells; 4 hours): 2.02
- Stabilization ratio (CD4 positive T cells; 6 hours): 3.13
- Stabilization ratio (CD4 positive T cells; 8 hours): 3.31
- Stabilization ratio (CD4 positive T cells; 15 hours): 5.09
- Stabilization ratio (CD4 positive T cells; 22 hours): 5.24
- Stabilization ratio (CD4 positive T cells; 24 hours): 6.64
- Percentage of IL15Ra positive cells (CD4 positive T cells; untreated T cells): 1.68% and 1%
- IL15 levels in the media (FIG. 54B, 54C) (HCT116 cells [3]): TMP dose dependent increase in IL15 levels detected in the media
- IL15 stabilization by western blot (FIG. 24A) (HEK-293T cells): strong ligand (Trimethoprim) dependent stabilization of IL15
- Surface expression of IL15 and IL15Ra (FIG. 24B, 24C) (HEK293T cells): strong ligand (Trimethoprim) dependent surface expression of IL15 and IL15Ra
- IL15Ra expression in T cells (FIG. 35) (primary T cells; 10 μM TMP 24/48 h or 0.156-160 μM 24 h): increase in the expression of IL15Ra in T cells with both doses of lentivirus used; also recorded: An increase in the percentage of IL15Ra cells with increasing doses of TMP was observed
- % Positive cells, IL15Ra positive (primary T cells; T cells, surface expression): 15.8%
- % Positive cells, IL15 and IL15Ra positive (primary T cells; T cells, surface expression): 0.51%
- % Positive cells, IL15 positive (primary T cells; T cells, surface expression): 0.60%
- IL15Ra expression by immunoblot (FIG. 26, 27, 54A) (HCT116 cells [4]): virtually undetectable in the absence of TMP, and addition of increasing doses of TMP resulted in an increase in IL15Ra levels
- Median Fluorescence Intensity, surface IL15-IL15Ra (HCT-116 cells [5]; DMSO): 1260
- Median Fluorescence Intensity, surface IL15-IL15Ra (HCT-116 cells [5]; TMP 0.01 μM): 1384
- Median Fluorescence Intensity, surface IL15-IL15Ra (HCT-116 cells [5]; TMP 0.02 μM): 1492
- Median Fluorescence Intensity, surface IL15-IL15Ra (HCT-116 cells [5]; TMP 0.05 μM): 1947
- Median Fluorescence Intensity, surface IL15-IL15Ra (HCT-116 cells [5]; TMP 0.14 μM): 2741
- Median Fluorescence Intensity, surface IL15-IL15Ra (HCT-116 cells [5]; TMP 0.41 μM): 3360
- Median Fluorescence Intensity, surface IL15-IL15Ra (HCT-116 cells [5]; TMP 3.7 μM): 4265
- Median Fluorescence Intensity, surface IL15-IL15Ra (HCT-116 cells [5]; TMP 11.11 μM): 4267
- Median Fluorescence Intensity, surface IL15-IL15Ra (HCT-116 cells [5]; TMP 33.33 μM): 4485
- Median Fluorescence Intensity, surface IL15-IL15Ra (HCT-116 cells [5]; TMP 100 μM): 4633
- Median Fluorescence Intensity, surface IL15-IL15Ra (HCT-116 cells [5]; TMP […]): 4014
